Reference: US20160194336A1, “P38 MAPK INHIBITORS FOR THE TREATMENT OF INFLAMMATORY DISEASES” (ALLINKY BIOPHARMA, priority 2012, published 2016)

Tests used:
[1] = target: T1, p38alpha wt (Homo sapiens, UniProt Q16539); assay: site-mutated p38 phosphorylation cascade assay, wild type; type: biochemical; conditions: compound 10 uM
T1 construct: made in house; host or cells: E. coli XL10-Gold
Experimental: (§1) After preincubation, MKK6 (ProQinase), ATF2 (ProQinase) and ATP were added to a final concentration of 10 nM, 5 μM and 10 μM respectively, then incubated 40 minutes at 30° C. and analyzed with ADP-Glo™.
(§2) Replacement of specific residues arginine 186 and 189 of p38α (pGEX4T-1-p38α) for alanine was performed with the QuikChange Lightining Site-Directed Mutagenesis Kit (Agilent Technologies). The following oligonucleotides were used for the arginine 186 to alanine substitution: forward primer: 5′-SEQ ID NO 7-3′; reverse primer: 5′-SEQ ID NO 8-3′. Oligonucleotides used for the arginine 189 to alanine substitution were: forward primer: 5′-SEQ ID NO 9-3′; reverse primer: 5′-SEQ ID NO 10-3′. Mutations were validated by sequencing (Genomic Unit, Parque Cientifico de Madrid). E. coli XL10-Gold ultracompentent cells (Agilent Technologies) were transformed with the vector plasmids containing p38αWT and mutants. For the expression of recombinant p38α transformed cells were cultured overnight at 37° C. in 50 ml of fresh LB medium containing ampicillin (100 μg/ml). After that, culture was diluted in fresh LB to A595=0.4 and grown for approximately 1 h at 37° C. until exponential growth and then induced with Isopropyl-β-D-thiogalactopyranoside (IPTG) 1 mM for 5 h. The cells were collected by centrifugation and cell pellet were resuspended in 50 ml of cold lysis buffer: PBS pH 7.4, EDTA 10 mM, PMSF 1 mM, Benzamidine 0.2 mM, DTT 5 mM, Triton X-100 1% and Lysozyme 1 mg/ml. The soluble and insoluble fractions were separated by centrifugation (16,000 g for 20 min). The soluble fraction was incubated for 2 hours with 1 ml of pre-equilibrated Glutathione Sepharose 4B (GE Healthcare) and the resin was extensively washed in a column with 200 ml of binding buffer: PBS, PMSF 1 mM and benzamidine 0.2 mM. Proteins were eluted with 1 ml of Tris-HCl 50 mM pH 8.0 and reduced glutathione 20 mM. 20% glycerol was added to purified proteins and stored at −80° C. Protein concentration and purity was assessed by SDS-PAGE. Kinase activity was measured by ADP-glo kit using MKK6 as activator and ATF2 as substrate. Activity recorded for p38αR186A and p38αR189A were 15.5% and 4.8%, respectively (n=4) related to wild type protein.

[2] = target: T2, p38αR186A (Homo sapiens, UniProt Q16539, R186A); assay: site-mutated p38 phosphorylation cascade assay, R186A mutant; type: biochemical; conditions: compound 10 uM
T2 construct: made in house; host or cells: E. coli XL10-Gold
T2 sequence (Q16539 whole entry R186A): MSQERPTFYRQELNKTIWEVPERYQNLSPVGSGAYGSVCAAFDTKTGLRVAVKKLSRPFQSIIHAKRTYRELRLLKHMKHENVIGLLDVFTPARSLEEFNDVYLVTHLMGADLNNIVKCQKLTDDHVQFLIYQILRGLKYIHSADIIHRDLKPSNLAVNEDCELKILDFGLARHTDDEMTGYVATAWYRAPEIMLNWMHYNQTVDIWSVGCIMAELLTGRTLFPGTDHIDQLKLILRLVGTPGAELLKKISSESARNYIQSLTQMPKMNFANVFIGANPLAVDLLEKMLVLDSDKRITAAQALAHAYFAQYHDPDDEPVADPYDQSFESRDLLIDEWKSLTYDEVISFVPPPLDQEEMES
Experimental: as §1, §2

[3] = system: THP-1 cells; assay: survival of monocytes with LPS; type: cell-based, human
[4] = system: TNF-α secretion, THP-1 cells; assay: Inhibition of TNF-α secretion by LPS-stimulated THP-1; type: cell-based; conditions: Homo sapiens, THP-1, 3 h, monocytes with LPS, read-out: TNF abetment
Experimental: Inhibition of TNF-α Secretion by a Human Monocytic Cell Line, THP-1.
THP-1 cells, growing in log phase, were collected by centrifugation and resuspended in RPMI 1640 (Sigma Aldrich), to a final cell concentration of 2×10^6 cells/ml. Cells were plated into 24-well plates (BD Biosciences). Dilutions of compounds in dimethyl sulfoxide (DMSO) were added to the culture to a final concentration M. The final DMSO concentration was 0.5%. The cells […] suspensions were preincubated with compounds for 1 h at 37° C. in a 5% C02 humidified atmosphere before the addition of LPS (Sigma Aldrich, L2654) to a final concentration of 2 μg/ml. After that, cells were incubated for 3 h followed by centrifugation to pellet cells. Cell supernatants were stored at 4° C. until Human analysis for TNF-α content. TNF-α levels were determined by ELISA (TNF Biotrak, GE Healthcare) following the manufacturer's directions. The percentage inhibition was calculated for each compound concentration tested, and the IC50 was calculated for each compound.

[5] = target: T3, p38αR189A (Homo sapiens, UniProt Q16539, R189A); assay: site-mutated p38 phosphorylation cascade assay, R189A mutant; type: biochemical; conditions: compound 10 uM
T3 construct: made in house; host or cells: E. coli XL10-Gold
T3 sequence (Q16539 whole entry R189A): as the sequence (Q16539 whole entry R186A) above, with A186R, R189A counted along it
Experimental: as §1, §2

T1 sequence (Q16539 whole entry): as the sequence (Q16539 whole entry R186A) above, with A186R counted along it

| inhibition at 10 µM [1] [%] | inhibition at 10 µM [2] [%] | inhibition at 10 µM [5] [%] | SMILES | Cell survival ([3]; 1 uM) [%] | Cell survival ([3]; 10 uM) [%] | inhibition at 1 µM [4] [%] | inhibition at 10 µM [4] [%] | Cell survival ([3]; 0.1 uM) [%] | inhibition at 0.1 µM [4] [%] |
| --- | --- | --- | --- | --- | --- | --- | --- | --- | --- |
| 81 | 39 | 14 | CCOC(=O)c1ccc(Nc2nc3nonc3nc2NN=Cc2cccc3ccccc23)cc1 [Compound 12] | 97 | 99 | -6 | -16 | – | – |
| 34 | 22 | 14 | CCOC(=O)c1ccc(Nc2nc3nonc3nc2N2CCN(Cc3cccc(Cl)c3)CC2)cc1 [Compound 13] | 93 | 86 | 13 | 32 | – | – |
| 31 | 18 | 17 | CCOC(=O)c1ccc(Nc2nc3nonc3nc2N2CCN(Cc3ccccc3C)CC2)cc1 [Compound 14] | – | 81 | – | 17 | – | – |
| 61 | 28 | 20 | CCOC(=O)c1ccc(Nc2nc3nonc3nc2N2CCC(Sc3ccc(C)cc3)CC2)cc1 [Compound 15] | 92 | 97 | 17 | 32 | – | – |
| 32 | 15 | 17 | CCOC(=O)c1ccc(Nc2nc3nonc3nc2N2CCC(Oc3ccccc3OC)CC2)cc1 [Compound 16] | 95 | 93 | 26 | 35 | 88 | 16 |
| 56 | 19 | 13 | CCOC(=O)c1ccc(Nc2nc3nonc3nc2N2CCC(C(=O)c3ccccc3)CC2)cc1 [Compound 17] | 98 | 97 | 34 | 69 | 99 | 21 |
| 62 | 37 | 33 | CC(C)NC(=O)c1ccc(Nc2nc3nonc3nc2N2CCC(Cc3ccccc3)CC2)cc1 [Compound 18] | 83 | 79 | 34 | 56 | 90 | 1 |
| 71 | 35 | 32 | CCCNC(=O)c1ccc(Nc2nc3nonc3nc2N2CCC(Cc3ccccc3)CC2)cc1 [Compound 19] | 97 | 93 | -21 | -10 | 103 | -47 |
| 71 | 38 | 22 | CC(C)NC(=O)c1cccc(Nc2nc3nonc3nc2N2CCC(Cc3ccccc3)CC2)c1 [Compound 20] | 96 | 81 | 55 | 36 | 101 | -9 |
| 83 | 48 | 38 | Cc1cc(C(=O)NCC(C)C)ccc1Nc1nc2nonc2nc1N1CCC(Cc2ccccc2)CC1 [Compound 21] | 95 | 94 | 18 | 20 | 98 | -15 |
| 31 | 16 | 6 | Cc1ccc(SC2CCN(c3nc4nonc4nc3-c3cccc(C(=O)OC(C)C)c3)CC2)cc1 [Compound 22] | 94 | 99 | 17 | 10 | 97 | -2 |
| 90 | 48 | 26 | CCCNC(=O)c1ccc(Nc2nc3nonc3nc2N2CCC(Sc3ccc(C)cc3)CC2)cc1 [Compound 23] | 95 | 88 | 41 | 60 | 96 | 26 |
| 66 | 43 | 39 | CCOC(=O)c1ccc(NNc2nc3nonc3nc2N2CCC(Cc3ccccc3)CC2)cc1 [Compound 24] | 98 | 105 | 12 | 67 | 104 | -23 |
| 59 | 14 | 30 | CCOC(=O)c1ccc(Nc2nc3nonc3nc2N2CCC(Oc3ccc(Cl)cc3)CC2)cc1 [Compound 25] | 61 | 42 | 61 | 102 | 88 | 12 |
| 73 | 40 | 28 | CCOC(=O)c1ccc(Nc2nc3nonc3nc2Nc2ccc(C(=O)c3ccccc3)cc2)cc1 [Compound 26] | 87 | 83 | 30 | 8 | 86 | 27 |
| 88 | 72 | 47 | CCOC(=O)c1ccc(Nc2nc3nonc3nc2Nc2ccc(Oc3ccncc3)cc2)cc1 [Compound 27] | 99 | 72 | 58 | 76 | 103 | 28 |
| 86 | 41 | 27 | CCOC(=O)c1ccc(Nc2nc3nonc3nc2N2CCC(Sc3ccc(Cl)cc3)CC2)cc1 [Compound 28] | 87 | 88 | 24 | 36 | 88 | 17 |
| 23 | 21 | 6 | O=C(O)c1ccc(Nc2nc3nonc3nc2N2CCC(Cc3ccccc3)CC2)cc1 [Compound 29] | 103 | 92 | 11 | 44 | 103 | 7 |
| 25 | 19 | 9 | O=C([O][Na+])c1ccc(Nc2nc3nonc3nc2N2CCC(Cc3ccccc3)CC2)cc1 [Compound 30] | 97 | 93 | 16 | 41 | 99 | 12 |
| 84 | 35 | 27 | COC(=O)c1ccc(Nc2nc3nonc3nc2N2CCC(Oc3ccc(Cl)cc3)CC2)cc1 [Compound 31] | 100 | 92 | 43 | 60 | 101 | 20 |
